The values below come from patent US7186703B2, “Derivatives of branched-chain lipophilic molecules and uses thereof” (D-Pharm Ltd., priority 2000, dated 2007).

In this assay the test system is C6 glioma tumor. Kind of assay: Anti-tumor effect in C6 glioma-bearing rats, tumor volume and appearance (Example 28). In kind it is in vivo, Sprague Dawley (SD) rats. The method, then:
The anti-tumor effect of DP-BFA was evaluated by monitoring tumor volume and appearance in a model system of C6 glioma-bearing rats. Sprague Dawley (SD) rats were inoculated with 2.5×10^5 C6 glioma cells in 5 μl PBS as follows. Rats were mounted into a stereotactic head holder in a flat-skull position. After reflections of the periosteum, a burr hole was preformed with a 1 mm drill in the following coordinates: bregma—1.0, 3.50 mm lateral from the midline on the left side, and at a depth of 3.50 mm. The cell suspension was manually injected at a depth of 3.50 mm using a 10 μl Hamilton syringe.
The pterigo-palatina artery was legated, and the common carotid artery was clamped at the time of infusion.
Five days after the inoculation of the C6 tumor cells, the rats were anesthetized with Ketamin/xylazin (1:1) 0.1 ml/100 grams body weight, perfused with saline and fixed with 4% Formaldehyde solution. Brains were removed and cryoprotected in a sucrose solution for 48 h. The brains were then sliced in coronal section, stained with Haematoxylin-Eosine and underwent pathology evaluation.

For “2-(4′-Hexadecanoyloxy)ethoxyethyl phosphate [3,12-DEG-PO4]”, the “anti-tumor effect, invasiveness and rate of growth (in words)” value (rat, in vivo) was “significant anti-tumor effect”. In addition, the Tumor volume (single dose 5 to 20 μM, 72 h post inoculation, vehicle 8.1±2.2) is 1.6±0.2 mm^3.
